Data from paper PMC9696794, “Synthesis and Antimicrobial Activity of Short Analogues of the Marine Antimicrobial Peptide Turgencin A: Effects of SAR Optimizations, Cys-Cys Cyclization and Lipopeptide Modifications” (International Journal of Molecular Sciences, 2022).
≈ marks a conversion by molar mass, not a printed value. Where a SMILES comes first, the peptide text is derived from it. Bridges are numbered along the chain shown (N, C = ends). The star is where a group is joined. Lauroyl = CCCCCCCCCCCC(=O)*; Decanoyl = CCCCCCCCCC(=O)*

Experiments:
[1] = tested on: C. glutamicum (Cg, ATCC 13032); assay: microbe, parasite or virus in culture; assay type: cell-based, Corynebacterium glutamicum; conditions: ATCC 13032, 24 h
In short: (§1)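 Cultures grown in Mueller–Hinton broth were adjusted by OD600 to 2.5–3 × 10^4 CFU/mL and mixed with two-fold peptide dilutions from 256 to 1 µg/mL. Plates were incubated at 35 °C with OD595 monitored every hour for 24 h.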

[2] = tested on: S. epidermidis RP62A (Se, ATCC 35984); assay: microbe, parasite or virus in culture; assay type: cell-based, Staphylococcus epidermidis; conditions: ATCC 35984, 24 h
In short: as §1

all bacterial strains = assay: Antibacterial MIC assay, all bacterial strains together (range or geometric mean); assay type: cell-based; conditions: for GM (geometric mean of the MIC values against all bacterial strains): Table 1, six bacterial strains; for GM of MIC Tot. bact.: Table S3, all bacterial test strains, MIC >256 set to 256
In short: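 Broth microdilution in Mueller–Hinton broth against B. subtilis, C. glutamicum, S. aureus, S. epidermidis RP62A, E. coli and P. aeruginosa; inoculum 2.5–3 × 10^4 CFU/mL, 35 °C, OD595 read hourly for 24 h. MIC: lowest peptide concentration giving OD below 10% of growth control; geometric mean across strains, triplicate.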

[3] = tested on: S. aureus (Sa, ATCC 9144); assay: microbe, parasite or virus in culture; assay type: cell-based, Staphylococcus aureus; conditions: ATCC 9144, 24 h
In short: as §1

[4] = tested on: P. aeruginosa (Pa, ATCC 27853); assay: microbe, parasite or virus in culture; assay type: cell-based, Pseudomonas aeruginosa; conditions: ATCC 27853, 24 h
In short: as §1

Rhodotorula sp. (Rh) = assay: microbe, parasite or virus in culture; assay type: cell-based; conditions: 48 h
In short: (§2)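 Overnight cultures in potato dextrose broth with 2% glucose at 25–30 °C were diluted to approx. 4 × 10^5 spores/mL and mixed 1:1 with two-fold peptide dilutions plated at 256 to 1 µg/mL. After 48 h at room temperature, OD600 was read. MIC was the lowest concentration giving OD below 10% of the growth control, in triplicate.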

[5] = tested on: fungi (A. pullulans, C. albicans, Rhodotorula sp.); assay: Antifungal MIC assay, all fungi together (range or geometric mean); assay type: cell-based; conditions: Table S3; MIC >128 set to 128
In short: as §2

E. coli (Ec, ATCC 25922) = assay: microbe, parasite or virus in culture; assay type: cell-based, Escherichia coli; conditions: ATCC 25922, 24 h
In short: as §1

[6] = tested on: human red blood cells (RBC); assay: Haemolytic activity assay; assay type: cell-based; conditions: for Selectivity index (SI) G-: EC50/GM of Gram-negative strains; for Selectivity index (SI) G+: EC50/GM of Gram-positive strains; for SI (selectivity index = EC50/GM): haemolytic EC50 over GM of MIC against all bacterial strains, Table 1; for RBC Tox. (EC50), haemolytic activity: human RBC, 1 h, 37 °C, concentration giving 50% haemolysis; for Selectivity index (SI) Fungi: EC50/GM of fungi
In short: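 Washed human erythrocytes (1% hematocrit final) incubated 1 h at 37 °C with agitation with lipopeptides at 500–3.9 μM in PBS (≤1% DMSO), duplicates. Haemoglobin release read at 545 nm relative to 0.1% Triton X-100; EC50 is 50% haemolysis, averaged from three experiments.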

[7] = tested on: C. albicans (Ca, ATCC 10231); assay: microbe, parasite or virus in culture; assay type: cell-based, Candida albicans; conditions: ATCC 10231, 48 h
In short: as §2

A. pullulans (Ap) = assay: microbe, parasite or virus in culture; assay type: cell-based, Aurobasidium pollulans; conditions: 48 h
In short: as §2

[8] = tested on: Gram-negative bacterial strains (E. coli and P. aeruginosa); assay: Antibacterial MIC assay, Gram-negative strains together (range or geometric mean); assay type: cell-based; conditions: Table S3; MIC >256 set to 256
In short: as §1

[9] = tested on: B. subtilis (Bs, ATCC 23857); assay: microbe, parasite or virus in culture; assay type: cell-based, Bacillus subtilis; conditions: ATCC 23857, 24 h
In short: as §1

[10] = tested on: E. coli MC4100 (wild type, WT); assay: microbe, parasite or virus in culture; conditions: wild type
Method: (§3) All cyclic and linear peptides were screened for antibacterial activity against four Gram-positive strains: B. subtilis (Bs, ATCC 23857), C. glutamicum (Cg, ATCC 13032), S. aureus (Sa, ATCC 9144) and S. epidermidis RP62A (Se, ATCC 35984), and two Gram-negative strains: E. coli (Ec, ATCC 25922) and P. aeruginosa (Pa, ATCC 27853). The activity was assessed using a broth microdilution assay according to a modified CLSI-based method. Briefly, overnight bacterial cultures were grown in Mueller–Hinton (MH) broth medium (Difco Laboratories, Detroit, MI, USA) for 2 h at room temperature. The optical density (OD600) was measured, and the bacterial suspensions were adjusted to 2.5–3 × 10^4 CFU/mL in MH medium. The bacterial suspension (50 µL) was distributed in 96-well plates (Nunc, Roskilde, Denmark) preloaded with two-fold dilution series (256 to 1 µg/mL) of peptide solutions (50 µL), giving a final well volume of 100 µL. The microplates were incubated in an EnVision 2103 microplate reader (PerkinElmer, Llantrisant, UK) at 35 °C, with OD595 recorded every hour for 24 h. MIC was defined as the lowest concentration of peptides showing an optical density less than 10% of the negative (growth) control, consisting of bacterial suspension and water. Polymyxin B sulfate (Sigma-Aldrich, St. Louis, MO, USA) and chlorhexidine acetate (CHX, Fresenius Kabi, Halden, Norway), both with concentrations ranging from 12.5 to 0.09 μg/mL, served as positive (growth inhibition) controls. All peptides were tested in triplicate.
(§4) MIC values were determined for all cyclic peptides against two E. coli strains: wild type (WT) MC4100 and the hyperpermeable variant NR698, having a deficient outer membrane. The NR698 strain, containing lptD4213/imp4213 mutation, was kindly provided by M. Grabowicz (Emory University School of Medicine, Rollins Research Center, Atlanta, GA, USA). The assay was performed in the same way as previously described for the antibacterial MIC assay.

[11] = tested on: E. coli NR698 (outer membrane permeable mutant, imp4213); assay: microbe, parasite or virus in culture; conditions: MC4100 NR698 imp4213, deficient outer membrane
Method: as §3, §4

[12] = tested on: Gram-positive bacterial strains; conditions: Table S3; MIC >256 set to 256
In short: as §1

[13] = Table S3, highest tested concentration used where EC50 above it

Compound | Antimicrobial Activity (MIC) Gram + Cg [1] | Antimicrobial Activity (MIC) Gram + Se [2] | GM (geometric mean of the MIC values against all bacterial strains) (all bacterial strains) | GM of MIC Tot. bact. (all bacterial strains) | Antimicrobial Activity (MIC) Gram + Sa [3] | Antimicrobial Activity (MIC) Gram − Pa [4] | Antimicrobial Activity (MIC) Fungi Rh (Rhodotorula sp. (Rh)) | GM of MIC Fungi [5] | Antimicrobial Activity (MIC) Gram − Ec (E. coli (Ec, ATCC 25922)) | Selectivity index (SI) G- [6, 13] | Selectivity index (SI) G+ [6, 13] | SI (selectivity index = EC50/GM) [6] | RBC Tox. (EC50), haemolytic activity [6] | Antimicrobial Activity (MIC) Fungi Ca [7] | Antimicrobial Activity (MIC) Fungi Ap (A. pullulans (Ap)) | GM of MIC G- [8] | Antimicrobial Activity (MIC) Gram + Bs [9] | MIC E. coli MC4100 (WT) [10] | MIC E. coli NR698 (mutant) [11] | GM of MIC G+ [12] | further results
CCCCCCCCCC(=O)N[C@H]1CSSC[C@@H](C(=O)N[C@@H](CCCNC(=N)N)C(=O)N[C@@H](CC(C)C)C(N)=O)NC(=O)[C@H](CCCNC(=N)N)NC(=O)[C@H](Cc2c[nH]c3ccccc23)NC(=O)[C@H](Cc2c[nH]c3ccccc23)NC(=O)CNC(=O)[C@H](Cc2c[nH]c3ccccc23)NC(=O)[C@H](CCCNC(=N)N)NC(=O)[C@H](CCCNC(=N)N)NC(=O)CNC1=O [Peptide C10-cTurg-6, C10- (CGRRWGWWRC)RL-NH2] (Decanoyl-CGRRWGWWRCRL-NH2; disulfide 1-10) | 4 µg/mL | 8 µg/mL | 8 µg/mL | 8 µg/mL | 8 µg/mL | 16 µg/mL | 32 µg/mL | 51 µg/mL | 16 µg/mL | 1 | 3 | 2 | 16 µg/mL | 64 µg/mL | 64 µg/mL | 16 µg/mL | 4 µg/mL | 8 µg/mL (≈ 4.48 µM) | 8 µg/mL (≈ 4.48 µM) | 6 µg/mL | –
CCCCCCCCCCCC(=O)N[C@H]1CSSC[C@@H](C(=O)N[C@@H](CCCCN)C(=O)N[C@@H](CC(C)C)C(N)=O)NC(=O)[C@H](CCCCN)NC(=O)[C@H](Cc2c[nH]c3ccccc23)NC(=O)CNC(=O)[C@H](Cc2c[nH]c3ccccc23)NC(=O)[C@H](Cc2c[nH]c3ccccc23)NC(=O)[C@H](CCCCN)NC(=O)[C@H](CCCCN)NC(=O)CNC1=O [Peptide C12-cTurg-2, C12- (CGKKWWGWKC)KL-NH2] (Lauroyl-CGKKWWGWKCKL-NH2; disulfide 1-10) | 8 µg/mL | 8 µg/mL | 9 µg/mL | 9 µg/mL | 8 µg/mL | 16 µg/mL | 32 µg/mL | 40 µg/mL | 16 µg/mL | 2 | 5 | 4 | 32 µg/mL | 64 µg/mL | 32 µg/mL | 16 µg/mL | 4 µg/mL | 8 µg/mL (≈ 4.7 µM) | 8 µg/mL (≈ 4.7 µM) | 7 µg/mL | Selectivity index (SI) Fungi [6, 13]: 1
CCCCCCCCCCCC(=O)N[C@H]1CSSC[C@@H](C(=O)N[C@@H](CCCNC(=N)N)C(=O)N[C@@H](CC(C)C)C(N)=O)NC(=O)[C@H](CCCNC(=N)N)NC(=O)[C@H](Cc2c[nH]c3ccccc23)NC(=O)[C@H](Cc2c[nH]c3ccccc23)NC(=O)CNC(=O)[C@H](Cc2c[nH]c3ccccc23)NC(=O)[C@H](CCCNC(=N)N)NC(=O)[C@H](CCCNC(=N)N)NC(=O)CNC1=O [Peptide C12-cTurg-6, C12- (CGRRWGWWRC)RL-NH2] (Lauroyl-CGRRWGWWRCRL-NH2; disulfide 1-10) | 8 µg/mL | 8 µg/mL | 14 µg/mL | 14 µg/mL | 16 µg/mL | 32 µg/mL | 64 µg/mL | 81 µg/mL | 32 µg/mL | – | 1 | – | 9 µg/mL | 128 µg/mL | 64 µg/mL | 32 µg/mL | 8 µg/mL | 16 µg/mL (≈ 8.82 µM) | 16 µg/mL (≈ 8.82 µM) | 10 µg/mL | Selectivity index (SI) Tot. bact. ([6]; Table S3, EC50/GM of all bacterial strains, highest tested concentration used where EC50 above it): 1
CC(C)C[C@H](NC(=O)[C@H](CCCCN)NC(=O)[C@@H]1CSSC[C@H](N)C(=O)NCC(=O)N[C@@H](CCCCN)C(=O)N[C@@H](CCCCN)C(=O)N[C@@H](Cc2c[nH]c3ccccc23)C(=O)N[C@@H](Cc2c[nH]c3ccccc23)C(=O)NCC(=O)N[C@@H](Cc2c[nH]c3ccccc23)C(=O)N[C@@H](CCCCN)C(=O)N1)C(N)=O [cTurg-2] (H-CGKKWWGWKCKL-NH2; disulfide 1-10; N-terminus assumed) | 4 µg/mL | 16 µg/mL | 20 µg/mL | 20 µg/mL | 32 µg/mL | 64 µg/mL | 32 µg/mL | 32 µg/mL | 64 µg/mL | > 16 | > 92 | >52 | >1045 µg/mL | 32 µg/mL | 32 µg/mL | 64 µg/mL | 8 µg/mL | 16 µg/mL (≈ 10.5 µM) | 8 µg/mL (≈ 5.26 µM) | 11 µg/mL | Selectivity index (SI) Fungi [6, 13]: > 33
